Reference: patent US20070154393A1, “Bioassay for volatile low molecular weight insecticides and methods of use” (priority 2005, published 2007)
Where two headings read alike, the source gives them in different places.

Experiments:
Format in all cases: in vivo
[1] = tested on: insecticide-susceptible Drosophila melanogaster (Canton-S strain); conditions: for Slope ± Std. Error (best-fit probit mortality line): Table 1, 24 hr exposure, probit analysis; for Slope ± Std. Error (best-fit probit mortality line) / Slope ± Std. Error (probit mortality line): Canton-S; for Slope ± Std. Error (probit mortality line): 24 hr
Description: The insecticide-susceptible Canton-S strain of Drosophila was obtained from the Bloomington Drosophila stock center (Indiana University, Bloomington, Ind.), and used exclusively in all studies. Flies were reared in 100-ml vials capped with acetate plugs (Fisher Scientific; Suwannee, Ga.) on a JAZZ-MIX diet (Fisher) prepared with a 2:1 ratio of water to apple juice. Flies were reared on a 12:12 photocycle at 24° C. and ambient relative humidity. Mixed-sex adults, less than 1-wk old, were used in bioassays.
Flies were briefly anesthetized in rearing vials with a pulse of CO2 and transferred to a CO2 flowbed (Genesee Scientific; San Diego, Calif.). Using a camel hair brush and a 5×5 cm sheet of rice paper, ten flies were placed into 7.0 ml dram vials. Prior to adding flies, each vial received a 0.5 cm^3 block of rearing diet that had been sufficiently dried on a paper towel to remove excessive moisture. The vials were then capped with open-top septum caps (Fisher) that were covered with fine mesh. The mesh was applied to the septum caps in advance using hot glue; it prevented fly escape but readily permitted gas exchange. The flies were allowed 1-hr to recover from the CO2 anesthesia. After one hour, single vials with flies were placed into 0.5 L glass jars, along with a filter paper tent (see FIG. 1). In a fume hood, filter paper tents were treated with insecticide dilutions or acetone for controls. The jars were then rapidly closed tightly with a metal lid. After 24 hours of exposure, mortality was scored with the aid of a magnifying glass.
All test compounds and solvents were >99% purity, and were purchased from Sigma-Aldrich Chemical (Milwaukee, Wis.). See Table 1 for a listing of the test compounds and their structures. Insecticide stock solutions were prepared at a standard concentration of 100 μg/μl in analytical grade acetone. For liquid insecticidal compounds, density in mg/μl was used to calculate weight on a per-volume basis. Stock solutions were held at −20° C. in sealed amber vials. In bioassay jars, filter paper tents were treated with stock volumes ranging from 2 to 20 μl, depending on the inherent toxicity of the test compound. These volumes of insecticide stock provided test concentrations of 200 to 2000 μg insecticide per replicate jar. A range of 4-5 concentrations plus a control were tested for each insecticide, and each range was repeated five times over at least three days. Controls received a volume of acetone identical to the highest insecticide volume that was tested (i.e., 10 μl for menthofuran; 20 μl for all other insecticides). Between uses, bioassay jars and lids were washed in a dishwasher, then baked 12-16 hr at 90° C. in a drying oven.
Probit and regression analyses were performed using the PROC PROBIT and PROC REG procedures, respectively. […] If control mortality ever exceeded 10% in a given replicate, that replicate was discarded.
Four Drosophila strains were used, all obtained from the Bloomington Drosophila Stock Center (Indiana University; Bloomington, Ind.). The Canton-S strain was used as the insecticide-susceptible standard. The Hikone-R strain is metabolically-resistant with elevated cytochrome P450 levels (Waters et al., 1984; Sundseth et al., 1989; Le Goff et al., 2003; Festucci-Buselli et al., 2005). Hikone-R is resistant to a number of insecticides, including malathion, DDT and neonicotinoids (Sundseth et al., 1989; Daborn et al., 2001). Two resistant neurological-mutant strains were also tested. […] Flies were reared in 100-ml vials capped with acetate plugs (Fisher Scientific; Suwanee, Ga.) on a commercial diet (JAZZ-MIX; Fisher Scientific). Flies were reared on a 12:12 photocycle at 24° C. and 60% relative humidity. Mixed-sex adults, less than 1-wk old, were used in bioassays.

[2] = tested on: metabolically-resistant Hikone-R strain of Drosophila (elevated cytochrome P450); conditions: Hikone-R, 24 hr
Description: (§1) Four Drosophila strains were used, all obtained from the Bloomington Drosophila Stock Center (Indiana University; Bloomington, Ind.). The Canton-S strain was used as the insecticide-susceptible standard. […] Two resistant neurological-mutant strains were also tested. […] Flies were reared in 100-ml vials capped with acetate plugs (Fisher Scientific; Suwanee, Ga.) on a commercial diet (JAZZ-MIX; Fisher Scientific). […] Mixed-sex adults, less than 1-wk old, were used in bioassays.
(§2) All volatile insecticide stocks were prepared at 100 μg/μl in analytical grade acetone. Rather than weigh the highly volatile liquid insecticides (i.e., all compounds except benzothiophene), weight was determined based on the density-volume relationship of each compound. […] The insecticide synergists PBO (piperonyl butoxide) and DEF (SSS-tributyl-phosphoro-trithioate) were obtained from Fluka Chemical Co. (Basel, Switzerland) and Mobay Chemical Co. (Kansas City, Mo.). […] Synergist stocks were prepared at 100 μg/ml in analytical grade acetone.
(§3) Briefly, bioassays took place in 0.5-l glass jars with metal lids. Mixed-sex flies were isolated from lab colonies and placed in 4-ml dram vials in groups of ten, along with a dried piece of laboratory diet. The dram vials were capped with open-top septum caps that were covered with fine mesh (held in place by non-toxic glue). For bioassays, the assembled dram vials were placed into the 0.5-l jars along with a folded filter paper “tent” (Whatman #1; Vineland, N.J.). The filter paper was treated with either an insecticide dilution or acetone, the jar was sealed with the metal lid, and the bioassay proceeded for 24-hr at room temperature. Mortality was scored based on a complete lack of movement by the flies. Four concentrations plus an acetone control were tested for all insecticides. Between five and ten replicates were performed for each concentration range on each strain-insecticide combination. Synergist bioassays were performed with a slight modification. Synergist stocks were applied to dram vials at 100 μl per vial to provide assay concentrations of 10 μg per vial. […] After treatment, vials were held at an angle in a fume hood and rotated ¼-turn each minute until the acetone evaporated. Flies and diet were added as above and held for 1-hr. Assays were initiated, run, and scored as above.
(§4) Probit analysis was performed using PROC PROBIT in the SAS software package (SAS Institute; Cary, N.C.). If control mortality ever exceeded 10% in a given replicate, that replicate was discarded.

[3] = tested on: para-ts1 (para-R) strain of Drosophila (sodium channel point mutation); conditions: for Slope ± Std. Error (probit mortality line): Table 2, para-R, 24 hr
Description: as §1, §2, §3, §4

[4] = Table 2, data taken from Scharf et al. (2006)

Substance: ethyl formate
- Slope ± Std. Error (best-fit probit mortality line) [1]: 5.18 ± 1.07
- Slope ± Std. Error (probit mortality line) [1, 4]: 5.18 ± 1.07
- Slope ± Std. Error (probit mortality line) ([1]; Table 3, no synergist): 5.18 ± 1.07
- LC50 (95% CL) ([1]; in vivo): 1656.0 (1486.0 − 1917.0) μg/jar
- Slope ± Std. Error (probit mortality line) ([2]; Table 2): 12.50 ± 7.10
- Slope ± Std. Error (probit mortality line) ([2]; Table 3, no synergist): 12.50 ± 7.10
- Slope ± Std. Error (probit mortality line) [3]: 7.11 ± 1.34
- response of para-ts1 relative to Canton-S (LC50 ratio, FIG. 7B), in words ([3]; significance at p<0.05, method of Robertson and Preisler): non-significant tolerance

Substance: methyl formate
- Slope ± Std. Error (best-fit probit mortality line) [1]: 3.27 ± 0.95
- Slope ± Std. Error (probit mortality line) [1, 4]: 3.27 ± 0.95
- Slope ± Std. Error (probit mortality line) ([1]; Table 3, no synergist): 3.27 ± 0.95
- Slope ± Std. Error (probit mortality line) ([2]; Table 2): 2.72 ± 0.68
- Slope ± Std. Error (probit mortality line) ([2]; Table 3, no synergist): 2.72 ± 0.68
- Slope ± Std. Error (probit mortality line) [3]: 8.84 ± 1.46
